Measured values: article PMC11170107, “Development of a new hazard scoring system in primary neuronal cell cultures for drug-induced acute neuronal toxicity identification in early drug discovery” (Frontiers in Pharmacology, 2024)
Entries after “also recorded” stand apart in the source; their conditions may differ.

Legend:
[1] = established from VigiBase, SIDER, Elsevier drug information and FDA prescribing information
[2] = Supplementary Table S1; cited from earlier work
[3] = ref National library of medicine, Daylimed; cited from earlier work
[4] = WHO adverse drug reactions VigiBase; ref Kumlien and Lundberg, 2010; cited from earlier work
[5] = seizure ADR frequency in SIDER; ref Campillos et al., 2008; Kuhn et al., 2010; cited from earlier work
[6] = tested on: rat primary cortical neurons; test: MEA hazard scoring in rat primary cortical neuronal cultures; conditions: for hazard classification in the hazard scoring system: rat primary neurons on MEA
Protocol: At DIV28, spontaneous neuronal activity obtained for 30 min in culture solution was defined as the baseline.
Data analysis was captured using AxIs suite software (Axion Biosystems Inc., version 3.6.2) and further analyzed using GraphPad Prism (version 9.00; GraphPad Software Inc., San Diego, CA). […] An active well should have more than 40% active electrodes. All wells below this threshold were discarded upon these quality criteria. For the downstream statistical analysis, the data on each MEA parameter was first expressed as the ratio of exposed wells (percentage change between baseline and the treatment) and then normalized to the average of the control within the same plate. i.e., Baseline corrected ratios of n= 7 or eight wells were averaged per condition. Each well of the MEA served as its own control, and the changes in the electrical activity elicited by the treatments were expressed as a percentage of that control activity and normalized to the wells treated with the vehicle control dimethyl sulfoxide (DMSO). […] Differences were determined using the non-parametric Wilcoxon Mann Whitney test; p-values below 0.05 were considered significant. Data are expressed as means ± S.E.M.
Thereafter, based on the effects of vehicles and positive controls, we determined the cut-off points between the different effect zones according to the key parameters selected as described in the previous subsection. The zones were defined as follows. The “no effect” zone reflects parameter changes that are most likely within vehicle variability. The “mild” and “strong” zones are differentiated bidirectionally showing mild and strong effects.
The respective hazard class was determined by a cumulative scoring of individual parameters using a scoring matrix, which was based on the following three fundamental components: (1) selection of the six key relevant parameters, (2) defining the cutoffs for the level of effect, and (3) defining weighted points per parameter for the level of hazard potential. The scoring matrix concluded with the addition of a weighted point algorithm to discriminate distinct degrees of neuronal hazard. […] The weighted points were defined on the importance of a parameter (and the direction of effect), as well as the identification of an expected hazard for different pharmacological modes of action. The overall hazard score is derived from the sum of all weighted parameters, which could be converted into a specific hazard label. The weighted points and total score range associated with the various hazard labels were optimized using an iterative process.

[7] = statistical tolerance interval of the ΔΔ% effect, One-sided interval

Row | Compound | Classification* (degree of seizure risk) [1] | Free Cmax highest [2] [nM] | FDA prescription information at therapeutic dose (Convulsion/ Seizure/Lower the seizure threshold/withdrawal) [3] | Percentage seizures of total number of ADRs [4] [%] | SIDER ADR on-/off-label [5] | also measured
1 | Cc1cc2c(s1)Nc1ccccc1N=C2N1CCN(C)CC1 [Olanzapine] | No risk |  |  |  |  | 
2 | CC(=O)Oc1ccccc1C(=O)O [Aspirin] | No risk | 43400 | not found on label | 0.216 | not found on label | 
3 | Cc1ccc(Nc2nccc(N(C)c3ccc4c(C)n(C)nc4c3)n2)cc1S(N)(=O)=O [pazopanib] | Risk | 1330 | not found on label | 0.4565 | not found on label | 
4 | CC(C)C[C@H]1C(=O)N2CCC[C@H]2[C@]2(O)O[C@](NC(=O)[C@@H]3C=C4c5cccc6[nH]c(Br)c(c56)C[C@H]4N(C)C3)(C(C)C)C(=O)N12 [Bromocriptine] | Risk | 1.4 | On label | 3.063 | postmarketing | 
5 | CN(C)CCC=C1c2ccccc2CCc2ccccc21 [Amitriptyline] |  | 173 | not found on label | 1.447 | no frequency information | Area.Under.Cross.Correlation Lower.TI [6, 7]: -100; Area.Under.Cross.Correlation Upper.TI [6, 7]: -28.75; Burst.Duration...Avg.(s. Lower.TI) [6, 7]: -100; Burst.Duration...Avg.(s. Upper.TI) [6, 7]: 2740; Mean.Firing.Rate..Hz. Lower.TI [6, 7]: -100; Mean.Firing.Rate..Hz. Upper.TI [6, 7]: -25.19; Median.Mean.ISI Lower.TI [6, 7]: -60.49; Median.Mean.ISI Upper.TI [6, 7]: 9.96
6 | C[C@](N)(Cc1ccc(O)c(O)c1)C(=O)O [Methyldopa] |  | 3300 | not found on label | 0.1002 | not found on label | hazard classification in the hazard scoring system [6]: high hazard
7 | [Br-].[K+] [Potassium bromide] | No risk |  | not found on label | 4.831 |  | 
8 | O=C1c2ccccc2C(Cc2ccncc2)(Cc2ccncc2)c2ccccc21 [XE-991] | Risk |  |  |  |  | 
9 | COC(=O)C1=C(C)NC(C)=C([N+](=O)[O-])C1c1ccccc1C(F)(F)F (stereo not drawn) [BayK 8644] | No risk |  |  |  |  | 
10 | CN1CCN(C2=Nc3ccccc3Oc3ccc(Cl)cc32)CC1 [Loxapine] | Risk | 44 | On label | 1.962 | no frequency information | 
11 | COc1cc(C(C)=O)ccc1OCCCN1CCC(c2noc3cc(F)ccc23)CC1 [Iloperidone] | Low risk | 12 | not found on label | 1.653 | not found on label | 
12 | FC(F)(F)c1ccc(CNc2ccc(Cc3c[nH]c4ncc(Cl)cc34)cn2)cn1 [Pexidartinib] | Risk | 100 | not found on label | 0.5386 |  | 
13 | CNS(=O)(=O)Cc1ccc2[nH]cc(CCN(C)C)c2c1 [Sumatriptan] | Risk | 388 | On label | 0.8281 | rare (<0.1%) | 
14 | Nc1nnc(-c2cccc(Cl)c2Cl)c(N)n1 [Lamotrigine] | Risk | 8600 | On label | 7.325 | 1.9% - 4% | 
15 | CCN(CC)C(=O)/C(C#N)=C/c1cc(O)c(O)c([N+](=O)[O-])c1 [Entacapone] | Risk | 130 | not found on label | 0.4204 | no frequency information | 
16 | C[N+](C)(C)CCOC(=O)CCC(=O)OCC[N+](C)(C)C [Succinylcholine] | No risk | 170 | not found on label | 0.792 | not found on label | 
17 | CCN(CC)CCCC(C)Nc1c2ccc(Cl)cc2nc2ccc(OC)cc12 (stereo not drawn) [Quinacrine] | No risk | 130 | not found on label | 1.17 |  | 
18 | CCN1C(=O)OC(C)(C)C1=O [Ethadione] | Risk |  |  |  |  | 
19 | N[C@@]1(C(=O)O)CC[C@H]2[C@H](C(=O)O)[C@H]21 [Eglumetad (LY354740), Eglumetad] | Risk |  |  |  |  | 

Row | Compound | Classification* (degree of seizure risk) [1] | Free Cmax highest [2] [nM] | FDA prescription information at therapeutic dose (Convulsion/ Seizure/Lower the seizure threshold/withdrawal) [3] | Percentage seizures of total number of ADRs [4] [%] | SIDER ADR on-/off-label [5] | also measured
20 | C1CCc2nnnn2CC1 [Pentylenetetrazole] | Risk |  |  |  |  | 
21 | Cc1ccc(C(=O)c2cc(O)c(O)c([N+](=O)[O-])c2)cc1 [Tolcapone] | No risk | 10 | not found on label | 0.8264 | not found on label | 
22 | NC(CCP(=O)(O)O)C(=O)O [L-AP 4] | Risk |  |  |  |  | 
23 | Cc1ccc(-c2cc(C(F)(F)F)nn2-c2ccc(S(N)(=O)=O)cc2)cc1 [Celecoxib] |  | 410 | not found on label | 0.3553 | not found on label | hazard classification in the hazard scoring system [6]: high hazard
24 | CNC1(c2ccccc2Cl)CCCCC1=O (stereo not drawn) [Ketamine] | Low risk | 1740 | not found on label | 1.967 | no frequency information | 
25 | O=C1C[C@@H]2OCC=C3CN4CC[C@]56c7ccccc7N1[C@H]5[C@H]2[C@H]3C[C@H]46 [Strychnine] | Risk |  |  | 0 |  | 
26 | NC(=O)C[S+]([O-])C(c1ccccc1)c1ccccc1 (stereo not drawn) [Modafinil] | Risk | 19600 | not found on label | 1.739 | postmarketing | 
27 | CCCCCCOc1nsnc1C1=CCCN(C)C1 [Xanomeline] | Risk |  |  |  |  | 
28 | CNC(=O)c1cc(Oc2ccc3nc(N[C@@H]4CCCC[C@H]4O)sc3c2)ccn1 [Sotuletinib] | Risk |  |  |  |  | 
29 | O=C1NC(=O)C(c2ccccc2)(c2ccccc2)N1 [Phenytoin] |  | 8127 | On label | 8.075 | infrequent (0.1-1%) | hazard classification in the hazard scoring system [6]: hazards; also recorded: high hazard
30 | NC(=O)OCC(COC(N)=O)c1ccccc1 [Felbamate] | Low risk | 181000 | on label | 9.4112 | not found on label | 
31 | Cc1ccc(COC(=O)N2CC[C@H](CNc3ncccn3)[C@H](F)C2)cc1 [Rislenemdaz (CERC-301), Rislenemdaz] | Risk | 4 |  |  |  | 
32 | O=C1Nc2ccc(Cl)cc2C(c2ccccc2Cl)=NC1O (stereo not drawn) [Lorazepam] | Risk | 22 | on label | 1.949 | postmarketing — 0.769% | 
33 | Tertiapin | Low risk |  |  |  |  | 
34 | NS(=O)(=O)c1cc2c(cc1Cl)NC(C1CC3C=CC1C3)NS2(=O)=O (stereo not drawn) [Cyclothiazide] | Risk | 3000 |  | 0 |  | 
35 | NN [Hydrazine] | Risk |  |  |  |  | 
36 | CS(=O)(=O)c1ccc(C2=C(c3ccccc3)C(=O)OC2)cc1 [Rofecoxib] | No risk | 130 |  | 1.2136 | not found on label | 
37 | CN1[C@@H]2CC[C@H]1C[C@@H](OC(=O)c1c[nH]c3ccccc13)C2 [Tropisetron] | No risk | 80 |  | 1.067 | not found on label | 
38 | COc1ccc(COc2ccc(Cc3cnc(N)nc3N)cc2OC)cc1 [GW-2580] | Risk |  |  |  |  | 
